Laboratory results published in the NIST ThermoML archive (doi:10.1021/je300775u).

Assay: xn = mol fraction of the nth substance listed
Conditions: 101 kPa, Liquid; for speed of sound: Pulse-echo method; for mass density: Vibrating tube method

ClCBr [bromochloromethane] + ClC(Cl)(Cl)Br
Conditions	mass density, 293.15 K [kg/m3]	mass density, 298.15 K [kg/m3]	mass density, 303.15 K [kg/m3]	mass density, 308.15 K [kg/m3]	mass density, 313.15 K [kg/m3]	speed of sound, 293.15 K [m/s]	speed of sound, 298.15 K [m/s]	speed of sound, 303.15 K [m/s]	speed of sound, 308.15 K [m/s]	speed of sound, 313.15 K [m/s]
x2 = 0	1933.23	1921.71	1910.15	1898.51	1886.82	1001.2	986.1	971	955.9	940.8
x2 = 0.052	1938.2	1926.72	1915.19	1903.6	1891.94	992.8	977.9	962.9	947.9	933
x2 = 0.103	1942.79	1931.34	1919.85	1908.3	1896.67	985.2	970.4	955.5	940.7	925.9
x2 = 0.1538	1947.34	1935.88	1924.46	1912.93	1901.44	978.4	963.6	948.9	934.2	919.1
x2 = 0.2031	1951.55	1940.16	1928.76	1917.27	1905.74	972.2	957.5	942.8	928.1	913.6
x2 = 0.2551	1956.05	1944.71	1933.31	1921.86	1910.36	966.1	951.6	937	922.6	908.1
x2 = 0.305	1960.19	1948.82	1937.49	1926.18	1914.72	960.7	946.3	931.8	917.3	903
x2 = 0.3522	1963.98	1952.66	1941.28	1929.99	1918.58	956.4	942.1	927.8	913.5	898.9
x2 = 0.4063	1968.54	1957.3	1946.02	1934.68	1923.3	950.8	936.7	922.4	908.2	894
x2 = 0.4553	1972.41	1961.2	1949.96	1938.65	1927.29	946.7	932.6	918.4	904.2	890.3
x2 = 0.5058	1976.4	1965.21	1954	1942.75	1931.42	942.7	928.6	914.5	900.5	886.5
x2 = 0.5665	1981.04	1969.89	1958.74	1947.52	1936.26	938.2	924.2	910.3	896.4	882.6
x2 = 0.6027	1983.79	1972.67	1961.52	1950.31	1939.1	935.8	921.9	908	894.1	880.3
x2 = 0.6567	1987.81	1976.74	1965.63	1954.45	1943.26	932.3	918.5	904.7	891	877.2
x2 = 0.7046	1991.31	1980.21	1969.15	1958.12	1946.95	929.6	915.8	902	888.3	874.7
x2 = 0.7543	1994.91	1983.88	1972.83	1961.75	1950.61	926.9	913.2	899.5	885.9	872.3
x2 = 0.8025	1998.2	1987.2	1976.2	1965.14	1954.05	924.5	910.8	897.2	883.7	870.2
x2 = 0.8516	2001.94	1990.96	1979.93	1968.92	1957.85	922.3	908.7	895.1	881.6	868.3
x2 = 0.8996	2005.35	1994.38	1983.39	1972.42	1961.38	920.3	906.8	893.3	879.9	866.5
x2 = 0.9228	2007.14	1996.17	1985.15	1974.22	1963.19	919.8	906.3	892.9	879.4	865.9
